In patent US20210361578A1, “MEK1/2 INHIBITOR-LOADED MICROPARTICLE FORMULATION” (University of Iowa Research Foundation, priority 2020, published 2021):
Entries after “also recorded” stand apart in the source; their conditions may differ.

Key:
[1] = In vitro drug release of PD98059-loaded microparticles (Examples 1/3, centrifugation and medium replacement); assay type: physicochemical; details: PD98059 powder; DPBS with 0.4% w/v Tween 80, 37° C.
Method: A weighed amount of the microparticles was suspended in 5 ml of the release medium (Dulbecco's phosphate buffered saline, DPBS, Life Science, Waltham, Mass.) that contains 0.4% w/v Tween 80 at an amount equivalent to 0.065 mg microparticles in 50 ml tube (n=3). The tubes were placed in an orbital shaker (New Brunswick Scientific, Edison, N.J.) operating at 300 rpm and 37° C. At pre-determined time points, the tube was centrifuged (1000×g for 5 min) and the whole volume of the release medium (5 ml) was removed and replaced completely with fresh medium in which the pellet was re-suspended. The concentration of PD98059 was measured in the samples using the HPLC method described below. The standard curve range was 0.125-10 μg/ml, and the r^2 value was 0.9998.
An Agilent Infinity 1100 HPLC (Santa Clara, Calif.) was used for to analyze PD98059 content and release of the microparticles. […] The flow rate used was 1 ml/min at room temperature, and the wavelength at which PD98059 was detected at 275 nm.
A weighed amount of the microparticles was suspended in 5 ml of the release medium (Dulbecco's phosphate buffered saline, DPBS, Life Science, Waltham, Mass.) that contains 0.4% w/v Tween 80 at an amount equivalent to 0.065 mg microparticles in 50 ml tube (n=3). […] The concentration of PD98059 was measured in the samples using the HPLC method described below. […]

[2] = tested on: plasma levels of norepinephrine; PVN p-ERK1/2; details: HF rats, cited from earlier work
[3] = tested on: PVN neuronal excitation and sympathetic nerve activity; details: cited from earlier work
MEK = details: Dudley et al.; cited from earlier work
[4] = Pharmacokinetics and organ levels of PD98059 following IV injection in healthy rats; assay type: in vivo
Method: 1: Pharmacokinetics of PD98059. Rats were anaesthetized using urethane and a canula was inserted in the femoral vein. A solution of PD98059 dissolved in 10% Tween 80 in sterile 1× DPBS at a concentration of 0.5 mg/ml (total volume 2 ml) was administered slowly by intravenous infusion. After 5, 15, 30, 60, 180, and 360 minutes, blood samples were withdrawn from rats. Major organs (liver, kidney, brain, and heart) were collected from rats after 1 and 3 hours (n=3/time point).
All blood samples were collected into 4 ml BD Vacutainer® blood collection tubes (K2-EDTA, Becton, Dickinson, and Company, Franklin Lakes, N.J.). Plasma samples were collected by centrifugation (3,300×g, 15 min), and frozen at −80° C. until analyzed. Plasma samples were thawed on ice, and a volume of 100 μl of plasma was transferred to a 15 ml tube, and spiked with 15 μl of the internal standard (IS) solution (10 μg/ml of 7-hydroxyfiavone in methanol). Collected organs were rinsed in PBS, then frozen at −80° C. For organs, a portion of each organ (200-400 mg) was accurately weighed and homogenized (Fisher Brand Bead Mill 4 Homogenizer, Hampton, N.H.) in 250 μl of 1× DPBS using 20-25 2.5 mm ceramic beads per sample, and spiked with 15 μl of the internal standard (IS) solution. One ml of cold acetonitrile was added to 100 μl of plasma samples or 400 μl of the tissue homogenate and vortexed for 1 min. The samples were kept on ice for 15 min to precipitate the proteins, then the tubes were centrifuged (4° C., 3,300×g, 10 min) and the supernatant was collected, and evaporated under nitrogen stream.
In the case of protocols 1 and 2, the residue in each tube was then dissolved in the mobile phase (described in the HPLC section below), centrifuged (12,000×g, 5 min), and the supernatant was injected in the HPLC and analyzed by the method described below. A standard curve was prepared using plasma and tissues collected from naive rats. These plasma or tissue homogenate samples were spiked with 15 μl of the IS solution as mentioned above, in addition to 15 μl of standard solutions of PD98059 in methanol at different concentrations. Pharmacokinetic parameters were calculated using PK Solver.
An Agilent HPLC workstation was used for sample analysis (Agilent Infinity 1100, Santa Clara, Calif.) that consisted of an Agilent quaternary pump, automatic injection port, and Agilent diode array detector (Agilent Corporation, Santa Clara, Calif.). A RP-C18 column was used for analysis (Waters Symmetry, 5 μm pore size, 4.6 mm×150 mm, Milford, Mass.). The mobile phase consisted of methanol: water 70:30 with 0.1% v/v trifluoroacetic acid, and the flow rate was 1 ml/min at room temperature. The detection wavelength was set to 275 nm.

In the case of COc1cccc(-c2cc(=O)c3ccccc3o2)c1N [PD98059], the “time for 80% of the unencapsulated drug to dissolve in the release medium” value [1] is listed as 24 h, the plasma norepinephrine levels ([2]; ICV infusion for 4 weeks) is listed as “significant reduction; also recorded: reduced; also recorded: normalized” and the “PVN p-ERK1/2” value ([2]; long term ICV infusion) is listed as “successfully decreased”. The heart rate ([3]; HF rats, 1-h ICV infusion, compared to SHAM or untreated animals) was “significantly decreased”, the “PVN neuronal excitation and (renal) sympathetic nerve activity” value ([3]; heart failure rats, 1-hour ICV infusion) was “decreased; also recorded: inhibited” and the “in vitro activity of MEK once PD98059 was removed from the medium” value (MEK) was “fully and instantaneously restored”. For the same molecule, the AUC0-t ([4]; IV injection of 1 mg of PD98059 in solution, non-compartmental analysis) was 2378.7 ng·h/mL, the “brain PD98059 level at 1 hour” value ([4]; healthy rats, IV 1 mg) was “approximately 410 ng/g” and the “brain PD98059 level at 3 hours” value ([4]; healthy rats, IV 1 mg) was ~76 ng/g. For the same molecule, the “drug levels in major organs (liver, kidney, brain, heart)” value ([4]; healthy rats, IV 1 mg, 1 and 3 hours) was “drug levels in the liver and kidney were comparatively higher than those in the brain and heart”, the “crossing of the blood brain barrier” value ([4]; rats) was “a significant portion of the drug crossed the blood brain barrier; also recorded: found to cross the blood brain barrier” and the elimination half-life ([4]; rats) was “above 1 hour”. For the same molecule, the “elimination half-life in plasma” value ([4]; rats, IV injection of PD98059 solution, 1 mg) was 1.22 h and the “pharmacokinetic model that fits the data” value ([4]; rats, IV, PK Solver) was 2-compartment model.
